Structures can show the parent of a compound that is named as a salt. Each block holds one compound with its values, some of them ahead of it.
What was measured:
phosphodiesterase = assay: Phosphodiesterase inhibition; assay type: biochemical
[1] = system: isolated cat papillary muscle; assay: Positive inotropic effect: % change in contractile force in isolated cat papillary muscle; conditions: for activation at 1 µg/mL: 1.0 μg/ml; for activation at 3.1 µg/mL: 3.1 μg/ml; for activation at 10 µg/mL: 10.0 μg/ml; for activation at 31 µg/mL: 31.0 μg/ml; for activation at 100 µg/mL: 100 μg/ml; for activation at 310 µg/mL: 310 μg/ml; for positive inotropic effect: statement in words, isolated cat papillary muscle
protein kinase = assay: Protein kinase activation relative to cyclic AMP; assay type: biochemical; conditions: compared with cyclic AMP
adenyl cyclase = assay: Inhibition of adenyl cyclase function; assay type: biochemical
[2] = Anti-inflammatory activity in in vivo animal testing
[3] = Antihypertensive properties in in vivo animal testing
[4] = Felis catus, read-out: % change in Contractile Force (CF)

- inhibition of phosphodiesterase (phosphodiesterase): inhibit phosphodiesterase markedly
Compound: O=P1(O)OC[C@H]2O[C@@H](n3c(SCc4ccccc4)nc4c(NCc5ccccc5)ncnc43)[C@H](O)[C@@H]2O1 [Compound 44, 6-(Benzylamino)-8-(benzylthio)-9-β-D-ribofuranosylpurine 3',5'-Cyclic Phosphate]

- inhibition of phosphodiesterase (phosphodiesterase): inhibit phosphodiesterase markedly
Compound: CCNc1ncnc2c1nc(SCc1ccccc1)n2[C@@H]1O[C@@H]2COP(=O)(O)O[C@H]2[C@H]1O [Compound 19, 8-(Benzylthio)-6-(ethylamino)-9-β-D-ribofuranosylpurine 3',5'-Cyclic Phosphate]
- activation at 1 µg/mL [1, 4]: 9%
- activation at 3.1 µg/mL [1, 4]: 11%
- activation at 10 µg/mL [1, 4]: 17%
- activation at 31 µg/mL [1, 4]: 28%
- activation at 100 µg/mL [1, 4]: 45%
- activation at 310 µg/mL [1, 4]: 88%
- positive inotropic effect [1]: exhibit positive inotropic effect

- inhibition of phosphodiesterase (phosphodiesterase): inhibit phosphodiesterase markedly
Compound: O=P1(O)OC[C@H]2O[C@@H](n3c(SCc4ccccc4)nc4c(N5CCCC5)ncnc43)[C@H](O)[C@@H]2O1 [Compound 18, 8-(Benzylthio)-6-pyrrolidino-9-β-D-ribofuranosylpurine 3',5'-Cyclic Phosphate]

- inhibition of phosphodiesterase (phosphodiesterase): inhibit phosphodiesterase markedly
- inhibition of adenyl cyclase function (adenyl cyclase): inhibit adenyl cyclase function
Compound: O=P1(O)OC[C@H]2O[C@@H](n3c(SCc4ccccc4)nc4c(N5CCCCC5)ncnc43)[C@H](O)[C@@H]2O1 [Compound 16, 8-(Benzylthio)-6-piperidino-9-β-D-ribofuranosylpurine 3',5'-Cyclic Phosphate]
- anti-inflammatory activity [2]: displayed anti-inflammatory activity

- inhibition of phosphodiesterase (phosphodiesterase): inhibit phosphodiesterase markedly
Compound: CN(C)c1nc(N)nc2c1nc(Cl)n2[C@@H]1O[C@@H]2COP(=O)(O)O[C@H]2[C@H]1O [Compound 56, 2-Amino-8-chloro-6-dimethylamino-9-β-D-ribofuranosylpurine 3',5'-Cyclic Phosphate]

- inhibition of phosphodiesterase (phosphodiesterase): inhibit phosphodiesterase markedly
Compound: CCCCNc1ncnc2c1nc(SCc1ccccc1)n2[C@@H]1O[C@@H]2COP(=O)(O)O[C@H]2[C@H]1O [Compound 17, 8-(Benzylthio)-6-(n-butylamino)-9-β-D-ribofuranosylpurine 3',5'-CyclicPhosphate]
- activation at 1 µg/mL [1, 4]: 7.5%
- activation at 3.1 µg/mL [1, 4]: 10%
- activation at 10 µg/mL [1, 4]: 19.3%
- activation at 31 µg/mL [1, 4]: 24%
- activation at 100 µg/mL [1, 4]: 30%
- activation at 310 µg/mL [1, 4]: 39%
- positive inotropic effect [1]: exhibit positive inotropic effect

- inhibition of phosphodiesterase (phosphodiesterase): inhibit phosphodiesterase markedly
Compound: O=P1(O)OC[C@H]2O[C@@H](n3c(Br)nc4c(NCc5ccccc5)ncnc43)[C@H](O)[C@@H]2O1 [Compound 42, 6-(Benzylamino)-8-bromo-9-β-D-ribofuranosylpurine 3',5'-Cyclic Phosphate]

- inhibition of phosphodiesterase (phosphodiesterase): inhibit phosphodiesterase markedly
Compound: CCN(CC)c1ncnc2c1nc(SCc1ccccc1)n2[C@@H]1O[C@@H]2COP(=O)(O)O[C@H]2[C@H]1O [Compound 15, 8-(Benzylthio)-6-(diethylamino)-9-β-D-ribofuranosylpurine 3',5'-CyclicPhosphate]

- inhibition of phosphodiesterase (phosphodiesterase): inhibit phosphodiesterase markedly
Compound: CSc1nc2c(NCc3ccccc3)ncnc2n1[C@@H]1O[C@@H]2COP(=O)(O)O[C@H]2[C@H]1O [Compound 43, 6-(Benzylamino)-8-(methylthio)-9-β-D-ribofuranosylpurine 3',5'-Cyclic Phosphate]

- inhibition of phosphodiesterase (phosphodiesterase): inhibit phosphodiesterase markedly
Compound: O=P1(O)OC[C@H]2O[C@@H](n3c(Sc4ccc(Cl)cc4)nc4c(N5CCCCC5)ncnc43)[C@H](O)[C@@H]2O1 [Compound 34, 8-(p-Chlorophenylthio)-6-piperidino-9-β-D-ribofuranosylpurine 3',5'-Cyclic Phosphate]

- inhibition of phosphodiesterase (phosphodiesterase): inhibit phosphodiesterase markedly
Compound: CCN(CC)c1ncnc2c1nc(Sc1ccc(Cl)cc1)n2[C@@H]1O[C@@H]2COP(=O)(O)O[C@H]2[C@H]1O [Compound 35, 8-(p-Chlorophenylthio)-6-(diethylamino)-9-β-D-ribofuranosylpurine 3',5'-Cyclic Phosphate]

- protein kinase activation (protein kinase): superior to cyclic AMP
Compound: CCCCNc1ncnc2c1nc(SC)n2[C@@H]1O[C@@H]2COP(=O)(O)O[C@H]2[C@H]1O [Compound 30, 6-n-Butylamino-8-(methylthio)-9-β-D-ribofuranosylpurine 3',5'-Cyclic Phosphate]

The next lines start with the compound.

Compound: CC(=O)O[C@@H]1[C@@H]2OP(=O)(O)OC[C@H]2O[C@H]1n1c(SCc2ccccc2)nc2c(Cl)ncnc21 [Compound 13, 2'-o-acetyl-8-(benzylthio)-6-chloro-9-β-D-ribofuranosylpurine 3',5'-Cyclic Phosphate Sodium Salt]
- inhibition of phosphodiesterase (phosphodiesterase): inhibit phosphodiesterase markedly

Compound: Nc1nc2c(Cl)ncnc2n1[C@@H]1O[C@@H]2COP(=O)(O)O[C@H]2[C@H]1O [Compound 4, 8-Amino-6-chloro-9-β-D-ribofuranosylpurine 3',5'-Cyclic Phosphate]
- inhibition of phosphodiesterase (phosphodiesterase): inhibit phosphodiesterase markedly
- protein kinase activation (protein kinase): superior to cyclic AMP

Compound: CCN(CC)c1nc2c(Cl)ncnc2n1[C@@H]1O[C@@H]2COP(=O)(O)O[C@H]2[C@H]1O [Compound 10, 6-Chloro-8-(diethylamino)-9-β-D-ribofuranosylpurine 3',5'-Cyclic Phosphate]
- inhibition of phosphodiesterase (phosphodiesterase): inhibit phosphodiesterase markedly

Compound: CCN(CC)c1ncnc2c1nc(Cl)n2[C@@H]1O[C@@H]2COP(=O)(O)O[C@H]2[C@H]1O [Compound 9, 8-Chloro-6-(diethylamino)-9-β-D-ribofuranosylpurine 3',5'-Cyclic Phosphate]
- inhibition of phosphodiesterase (phosphodiesterase): inhibit phosphodiesterase markedly
- protein kinase activation (protein kinase): superior to cyclic AMP

Compound: CCN(CC)c1ncnc2c1nc(N(CC)CC)n2[C@@H]1O[C@@H]2COP(=O)(O)O[C@H]2[C@H]1O [Compound 11, 6,8-Bis-(diethylamino)-9-β-D-ribofuranosylpurine 3',5'-Cyclic Phosphate]
- inhibition of phosphodiesterase (phosphodiesterase): inhibit phosphodiesterase markedly
- inhibition of adenyl cyclase function (adenyl cyclase): inhibit adenyl cyclase function
- antihypertensive properties [3]: displayed antihypertensive properties

Compound: CC(=O)O[C@@H]1[C@@H]2OP(=O)(O)OC[C@H]2O[C@H]1n1c(Cl)nc2c(Cl)ncnc21 [Compound 2a, 2'-O-Acetyl-6,8-dichloro-9-β-D-ribofuranosylpurine 3',5'-Cyclic Phosphate Sodium Salt]
- protein kinase activation (protein kinase): superior to cyclic AMP
- inhibition of adenyl cyclase function (adenyl cyclase): inhibit adenyl cyclase function

Compound: O=P1(O)OC[C@H]2O[C@@H](n3c(Sc4ccc(Cl)cc4)nc4c(Nc5ccccc5)ncnc43)[C@H](O)[C@@H]2O1 [Compound 37, 6-Anilino-8-(p-chlorophenylthio)-9-β-D-ribofuranosylpurine 3',5'-Cylic Phosphate]
- activation at 1 µg/mL [1, 4]: 2%
- activation at 3.1 µg/mL [1, 4]: 10.3%
- activation at 10 µg/mL [1, 4]: 31.3%
- activation at 31 µg/mL [1, 4]: 50.2%
- activation at 100 µg/mL [1, 4]: 74.5%
- activation at 310 µg/mL [1, 4]: 82.3%
- positive inotropic effect [1]: exhibit positive inotropic effect

Compound: CCCC(=O)O[C@@H]1[C@@H]2OP(=O)(O)OC[C@H]2O[C@H]1n1c(Cl)nc2c(Cl)ncnc21 [Compound 2b, 2'-O-Butyryl-6,8-dichloro-9-β-D-ribofuranosylpurine 3',5'-Cyclic Phosphate Sodium Salt]
- protein kinase activation (protein kinase): superior to cyclic AMP
- inhibition of adenyl cyclase function (adenyl cyclase): inhibit adenyl cyclase function

Compound: CCCCNc1ncnc2c1nc(Sc1ccc(Cl)cc1)n2[C@@H]1O[C@@H]2COP(=O)(O)O[C@H]2[C@H]1O [Compound 36, 6-n-Butylamino-8-(p-chlorophenylthio)-9-β-D-ribofuranosylpurine 3',5'-Cyclic Phosphate]
- activation at 1 µg/mL [1, 4]: 9.8%
- activation at 3.1 µg/mL [1, 4]: 15%
- activation at 10 µg/mL [1, 4]: 52.7%
- activation at 31 µg/mL [1, 4]: 62.3%
- activation at 100 µg/mL [1, 4]: 29.4%
- activation at 310 µg/mL [1, 4]: 101%
- positive inotropic effect [1]: exhibit positive inotropic effect

Compound: CCCNc1ncnc2c1nc(SCc1ccccc1)n2[C@@H]1O[C@@H]2COP(=O)(O)O[C@H]2[C@H]1O [Compound 20, 8-(Benzylthio)-6-n-propylamino-9-β-D-ribofuranosylpurine 3',5'-Cyclic Phosphate]
- activation at 310 µg/mL [1, 4]: 30%
- activation at 500 µg/mL ([1]; Felis catus, 500 μg/ml, read-out: % change in Contractile Force (CF)): 50%
- positive inotropic effect [1]: exhibit positive inotropic effect

Compound: CN(C)c1ncnc2c1nc(SCc1ccccc1)n2[C@@H]1O[C@@H]2COP(=O)(O)O[C@H]2[C@H]1O [Compound 24, 8-(Benzylthio)-6-dimethylamino-9-β-D-ribofuranosylpurine 3',5'-Cyclic Phosphate]
- activation at 1 µg/mL [1, 4]: 4%
- activation at 3.1 µg/mL [1, 4]: 9%
- activation at 10 µg/mL [1, 4]: 13%
- activation at 31 µg/mL [1, 4]: 18%
- activation at 100 µg/mL [1, 4]: 45%
- activation at 310 µg/mL [1, 4]: 118%
- positive inotropic effect [1]: exhibit positive inotropic effect

Compound: Nc1nc2c(S)ncnc2n1[C@@H]1O[C@@H]2COP(=O)(O)O[C@H]2[C@H]1O [Compound 6, 8-Amino-9-β-D-ribofuranosyl-6-thiopurine 3',5'-Cyclic Phosphate]
- inhibition of phosphodiesterase (phosphodiesterase): inhibit phosphodiesterase markedly

Compound: O=P1(O)OC[C@H]2O[C@@H](n3c(SCc4ccccc4)nc4c(SCc5ccccc5)ncnc43)[C@H](O)[C@@H]2O1 [Compound 14, 6,8-Bis-(benzylthio)-9-D-ribofuranosylpurine 3',5'-Cyclic Phosphate Sodium Salt]
- inhibition of phosphodiesterase (phosphodiesterase): inhibit phosphodiesterase markedly

From US4058659A, “6,8-Disubstituted purine derivatives of 9-β-D-ribofuranosyl 3',5'-cyclic phosphate” (ICN Pharmaceuticals, Inc., priority 1975, dated 1977)
